Results from BindingDB's records for doi:10.1016/0960-894X(95)00347-V (1995).

Experiments:
[1] = Inhibition of porcine Pancreatic elastase without pre-incubation
[2] = as above; remark: listed apart in the source
[3] = as above; remark: listed apart in the source
[4] = Inhibition of porcine Pancreatic elastase with 10 min pre-incubation

Structure (SMILES)	IC50 [1] [µM]	IC50 [2] [µM]	IC50 [3] [µM]	IC50 [4] [µM]
CC1(C)[C@H](C(=O)OCc2ccccc2)N2C(=O)[C@H](OS(=O)(=O)C(F)(F)F)[C@H]2S1(=O)=O [(2S,5R,6S)-3,3-Dimethyl-4,4,7-trioxo-6-trifluoromethanesulfonyloxy-4lambda*6*-thia-1-aza-bicyclo[3.2.0]heptane-2-carboxylic acid benzyl ester]	0.68			
CC1(C)[C@H](C(=O)OCc2ccccc2)N2C(=O)[C@H](OS(C)(=O)=O)[C@H]2S1(=O)=O [(2S,5R,6S)-6-Methanesulfonyloxy-3,3-dimethyl-4,4,7-trioxo-4lambda*6*-thia-1-aza-bicyclo[3.2.0]heptane-2-carboxylic acid benzyl ester]		2.2	0.13	
CC(C)(C)C(=O)OCOC(=O)[C@@H]1N2C(=O)[C@H](OS(=O)(=O)C(F)(F)F)[C@H]2S(=O)(=O)C1(C)C [(2S,5R,6S)-3,3-Dimethyl-4,4,7-trioxo-6-trifluoromethanesulfonyloxy-4lambda*6*-thia-1-aza-bicyclo[3.2.0]heptane-2-carboxylic acid 2,2-dimethyl-propionyloxymethyl ester]	1			
CC(C)(C)C(=O)OCOC(=O)[C@@H]1N2C(=O)[C@H](OS(C)(=O)=O)[C@H]2S(=O)(=O)C1(C)C [(2S,5R,6S)-6-Methanesulfonyloxy-3,3-dimethyl-4,4,7-trioxo-4lambda*6*-thia-1-aza-bicyclo[3.2.0]heptane-2-carboxylic acid 2,2-dimethyl-propionyloxymethyl ester]	4.3			0.54
CC(C)(C)C(=O)OCOC(=O)[C@@H]1N2C(=O)[C@H](Cl)[C@H]2S(=O)(=O)C1(C)C [(2S,5R,6S)-6-Chloro-3,3-dimethyl-4,4,7-trioxo-4lambda*6*-thia-1-aza-bicyclo[3.2.0]heptane-2-carboxylic acid 2,2-dimethyl-propionyloxymethyl ester]		280	220	

The next lines start with the values.

IC50 [1] [µM]	IC50 [2] [µM]	IC50 [3] [µM]	IC50 [4] [µM]	Structure (SMILES)
	23	0.15		Cc1ccc(S(=O)(=O)O[C@H]2C(=O)N3[C@@H](C(=O)OCc4ccccc4)C(C)(C)S(=O)(=O)[C@H]23)cc1 [(2S,5R,6S)-3,3-Dimethyl-4,4,7-trioxo-6-(toluene-4-sulfonyloxy)-4lambda*6*-thia-1-aza-bicyclo[3.2.0]heptane-2-carboxylic acid benzyl ester]
2.1			0.49	Cc1ccc(S(=O)(=O)O[C@H]2C(=O)N3[C@@H](C(=O)OCOC(=O)C(C)(C)C)C(C)(C)S(=O)(=O)[C@H]23)cc1 [(2S,5R,6S)-3,3-Dimethyl-4,4,7-trioxo-6-(toluene-4-sulfonyloxy)-4lambda*6*-thia-1-aza-bicyclo[3.2.0]heptane-2-carboxylic acid 2,2-dimethyl-propionyloxymethyl ester]
